Measured values: ChEMBL document CHEMBL3425418 (Bioorg Med Chem Lett, 2015)

Key:
[1] = Half life in Sprague-Dawley rat at 2.5 mg/kg, po; format: ADME, organism-based; parameters: dose 2.5 mg/kg, route oral; conditions: in vivo
[2] = AUC (0 to time) in Sprague-Dawley rat at 2.5 mg/kg, po; format: ADME, organism-based; parameters: dose 2.5 mg/kg, route oral; conditions: plasma
[3] = biological target: T1, Ephrin type-B receptor 2 (Homo sapiens, UniProt P29323); assay: Inhibition of recombinant EphB2 (unknown origin) by cell-free assay
T1 sequence (P29323 whole entry): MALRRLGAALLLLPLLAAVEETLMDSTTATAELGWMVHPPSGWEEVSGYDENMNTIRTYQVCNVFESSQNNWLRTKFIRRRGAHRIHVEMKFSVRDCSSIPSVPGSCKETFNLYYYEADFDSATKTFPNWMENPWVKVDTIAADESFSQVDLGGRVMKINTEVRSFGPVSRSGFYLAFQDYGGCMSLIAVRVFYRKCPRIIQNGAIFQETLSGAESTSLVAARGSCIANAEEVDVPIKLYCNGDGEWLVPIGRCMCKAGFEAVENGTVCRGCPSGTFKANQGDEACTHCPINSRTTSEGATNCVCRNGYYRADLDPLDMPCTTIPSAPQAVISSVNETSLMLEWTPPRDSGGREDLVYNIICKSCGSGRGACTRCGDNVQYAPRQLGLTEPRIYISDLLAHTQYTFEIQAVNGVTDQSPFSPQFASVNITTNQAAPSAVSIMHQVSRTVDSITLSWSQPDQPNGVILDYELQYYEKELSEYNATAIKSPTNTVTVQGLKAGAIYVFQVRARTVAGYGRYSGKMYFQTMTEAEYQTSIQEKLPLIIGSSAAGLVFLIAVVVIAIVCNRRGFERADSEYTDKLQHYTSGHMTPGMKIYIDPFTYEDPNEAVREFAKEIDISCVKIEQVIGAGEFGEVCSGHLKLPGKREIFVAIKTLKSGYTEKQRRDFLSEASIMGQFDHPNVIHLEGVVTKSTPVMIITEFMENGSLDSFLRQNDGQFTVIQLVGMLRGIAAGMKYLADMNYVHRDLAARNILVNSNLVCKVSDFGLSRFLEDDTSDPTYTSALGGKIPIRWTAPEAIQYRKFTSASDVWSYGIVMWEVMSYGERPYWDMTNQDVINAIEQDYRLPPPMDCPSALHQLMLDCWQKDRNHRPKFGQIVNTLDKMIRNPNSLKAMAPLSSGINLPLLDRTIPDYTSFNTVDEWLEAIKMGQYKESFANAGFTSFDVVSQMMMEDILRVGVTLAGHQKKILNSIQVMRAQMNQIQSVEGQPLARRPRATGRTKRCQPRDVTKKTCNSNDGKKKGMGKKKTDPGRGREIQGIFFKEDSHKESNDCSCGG

[4] = Mean residence time in Sprague-Dawley rat at 2.5 mg/kg, po; format: ADME, organism-based; parameters: dose 2.5 mg/kg, route oral; conditions: in vivo
[5] = AUC (0 to infinity) in Sprague-Dawley rat at 2.5 mg/kg, po; format: ADME, organism-based; parameters: time infinity, dose 2.5 mg/kg, route oral; conditions: plasma
[6] = Cmax in Sprague-Dawley rat at 2.5 mg/kg, po; format: ADME, organism-based; parameters: dose 2.5 mg/kg, route oral; conditions: in vivo
[7] = Tmax in Sprague-Dawley rat at 2.5 mg/kg, po; format: ADME, organism-based; parameters: dose 2.5 mg/kg, route oral; conditions: in vivo
[8] = organism: Homo sapiens; assay: Toxicity in metastatic renal cell carcinoma patient assessed as hypertension; format: organism-based
[9] = organism: Homo sapiens; assay: Toxicity in metastatic renal cell carcinoma patient assessed as dysphonia; format: organism-based

half-life [1] [h]	AUC [2] [ng·h/mL]	IC50 [3] [nM]	MRT [4] [h]	AUC(0-inf) [5] [ng·h/mL]	Cmax [6] [ng/mL]	Tmax [7] [h]	Compound	Activity [8] [%]	Activity [9] [%]
11.1	69700	26.8	15.8	73900	3980	5	[2H]C([2H])([2H])Oc1cc2nccc(Oc3ccc(NC(=O)Nc4cc(C)on4)c(Cl)c3)c2cc1OC([2H])([2H])[2H]		
							CNC(=O)c1cc(Oc2ccc(NC(=O)Nc3ccc(Cl)c(C(F)(F)F)c3)cc2)ccn1 [SORAFENIB]	34	5
9.35	47500	17.5	13.4	49100	3060	4.8	COc1cc2nccc(Oc3ccc(NC(=O)Nc4cc(C)on4)c(Cl)c3)c2cc1OC [TIVOZANIB]	44	21
